For orientation: IC50 means the concentration needed to halve the response being measured. Read a low IC50 as greater potency.

In test [1] the target is Mitogen-activated protein kinase 8 (Homo sapiens, UniProt P45983). Description: Homogeneous Time-resolved Fluorescence Assay.
Procedure: (§1) Biochemical IC50s for JNK were determined using HTRF. In each assay the phosphor-Thr71-ATF-2 product was detected using a Europium-cryptate labeled anti-phospho-Thr71-ATF-2 antibody. Streptavidin-allophycocyanin-XL was used as the acceptor. A 10-point dose-response curve for each compound was generated in duplicate and data was fit to a four parameter logistic.
The target of test [2] is Isoform Alpha-1 of Mitogen-activated protein kinase 10 (Alpha-1) 9-402] (Homo sapiens, UniProt P53779). Description: Homogeneous Time-resolved Fluorescence Assay. Conditions: pH 7; 22 °C.
Chain of Isoform Alpha-1 of Mitogen-activated protein kinase 10 (Alpha-1) 9-402] (P53779 39-402): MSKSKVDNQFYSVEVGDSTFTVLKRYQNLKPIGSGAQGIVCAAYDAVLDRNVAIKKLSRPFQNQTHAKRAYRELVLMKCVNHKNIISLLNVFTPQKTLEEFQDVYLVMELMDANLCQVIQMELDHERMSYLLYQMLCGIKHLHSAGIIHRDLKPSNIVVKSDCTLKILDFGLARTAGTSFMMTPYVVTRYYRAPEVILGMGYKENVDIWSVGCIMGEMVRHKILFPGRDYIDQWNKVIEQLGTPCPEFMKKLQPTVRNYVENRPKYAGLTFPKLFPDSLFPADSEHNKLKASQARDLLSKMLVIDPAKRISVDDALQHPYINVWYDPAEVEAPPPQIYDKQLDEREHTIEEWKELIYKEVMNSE
Procedure: as §1

Chain of Mitogen-activated protein kinase 8 (P45983 whole entry, canonical isoform): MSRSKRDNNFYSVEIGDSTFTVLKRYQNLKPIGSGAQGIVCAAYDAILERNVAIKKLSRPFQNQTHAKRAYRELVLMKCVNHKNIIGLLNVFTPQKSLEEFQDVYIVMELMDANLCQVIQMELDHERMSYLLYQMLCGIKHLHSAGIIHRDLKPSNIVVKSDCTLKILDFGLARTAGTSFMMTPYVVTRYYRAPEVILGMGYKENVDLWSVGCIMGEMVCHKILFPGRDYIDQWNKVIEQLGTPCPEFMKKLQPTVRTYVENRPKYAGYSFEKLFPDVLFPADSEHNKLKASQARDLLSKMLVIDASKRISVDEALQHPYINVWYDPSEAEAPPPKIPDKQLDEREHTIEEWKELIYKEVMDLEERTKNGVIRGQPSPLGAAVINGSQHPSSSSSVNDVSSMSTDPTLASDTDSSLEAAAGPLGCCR

In the case of `C=CCN1CCN(c2c(Cl)cccc2NC(=O)c2ccc(Br)o2)CC1` [piperazine amide, 6a], the concentration for half-maximal inhibition (IC50) in test [1] is 0.38 µM; in test [2] it was 1.26 µM.

The values above are taken from BindingDB's records for doi:10.1016/j.bmcl.2009.03.086 (The Scripps Research Institute, 2009).
